Test results published in patent US11679108B2, “Aromatic heterocyclic compound, and pharmaceutical composition and use thereof” (GUANGZHOU HENOVCOM BIOSCIENCE CO., LTD., priority 2018, dated 2023).

Legend:
ATX = ATX (Homo sapiens, UniProt Q13822); experiment: Analysis in vitro: LPC was used as substrate for screening enzyme activity (Amplex Red fluorescence); assay type: biochemical; conditions: inhibitory activity against ATX, with LPC as substrate
Outline: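 ATX lysoPLD activity was measured by coupled detection: LPC hydrolysis releases choline, which choline oxidase/HRP convert to an Amplex Red fluorescent signal (ex 530/em 590 nm). The enzyme mix (2 ng/μl ATX, 2 U/ml HRP, 0.2 U/ml choline oxidase) was combined with the substrate mix ([…], 400 μM Amplex Red) and 10-point threefold compound dilutions for 30 min. IC50 was derived from the inhibition ratio.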

ATX in human plasma = biological target: T1, ATX in human plasma (Homo sapiens, UniProt Q13822); experiment: Analysis in vitro: detection of LPA in human plasma for screening activity (LPA 18:2 by LC/MS/MS); assay type: biochemical; conditions: incubated 2 hours at 37° C., LPA 18:2 detected by LC/MS/MS
T1 construct: blank plasma was derived from at least 6 individual people; from tissue; host or cells: human plasma (pooled from at least 6 individuals)
Excerpt: Analysis In Vitro: Detection of LPA in Human Plasma for Screening Activity
Principle: LPC in plasma being used as a substrate, the produced LPA 18:2 (LPA 17:0 as an internal standard) is detected by LC/MS/MS quantitative analysis. At different concentrations of the compounds to be tested, the percentage of residual activity is obtained by the ratio of the production of LPA18:2 to that in the absence of the compounds to be tested, thereby calculating IC50 values.
Experiment procedures: blank plasma was derived from at least 6 individual people. The compounds to be tested were diluted from stock solution in 3-fold dilution gradient, to produce 8 concentrations of working solution (with zero) in series. 10 μL of the melting blank plasma samples were taken and iced methanol solution containing internal standard (LPA 17:0) was added to it, so that the mixture directedly performed protein precipitation, which served as a system control sample. 2 μL of the working solution in different concentration was taken and 198 μL of blank human plasma was added, which was incubated with a concentration of 0 to 10 μM. The samples were placed at an incubater containing 5% CO2 at 37° C., and incubated for 2 hours. When the incubation was completed, 10 μL of plasma sample was taken and appropriate volume of iced methanol solution containing internal standard (LPA 17:0) was added into it, so that the mixture directedly performed protein precipitation. The precipitation was centrifuged to take supernatant. LPA 18:2 was detected by LC/MS/MS and IC50 values were analyzed and calculated by software, seeing Table 2.

IC50 (ATX)	IC50 (ATX in human plasma)	Structure (SMILES)
100 to 500 nM	100 to 500 nM	CCc1nc2sc(N3CCN(CC(=O)N4CC(O)C4)CC3)nn2c1N(C)c1nc(-c2ccc(F)cc2)c(C#N)s1 [Example 2, 2-{[6-ethyl-2-(4-(2-(3-hydroxyazetidin-1-yl)-2-oxoethyl)piperazin-1-yl)imidazo[2,1-b][1,3,4]thiadiazol-5-yl](methyl)amino}-4-(4-fluorophenyl)thiazole-5-carbonitrile]
100 to 500 nM	0.01 to 100 nM	CCc1nc2sc(N3CCC4(CC3)CN(CC(=O)N3CC(O)C3)C4)nn2c1N(C)c1nc(-c2ccc(F)cc2)c(C#N)s1 [Example 4]
100 to 500 nM	100 to 500 nM	CCc1nc2sc(N3CCC4(CC3)CN(C(N)=O)C4)nn2c1N(C)c1nc(-c2ccc(F)cc2)c(C#N)s1 [Example 8]
0.01 to 100 nM	0.01 to 100 nM	CCc1nc2sc(N3CCC(N(C)S(C)(=O)=O)C3)nn2c1N(C)c1nc(-c2ccc(F)cc2)c(C#N)s1 (stereo not shown) [Example 10, N-{1-[5-((5-cyano-4-(4-fluorophenyl)thiazol-2-yl)(methyl)amino)-6-ethylimidazo[2,1-b][1,3,4]thiadiazol-2-yl}pyrrolidin-3-yl]-N-methylmethanesulfonamide]
0.01 to 100 nM	0.01 to 100 nM	CCc1nc2sc(N3CCC(N(C)CC(=O)N4CC(O)C4)C3)nn2c1N(C)c1nc(-c2ccc(F)cc2)c(C#N)s1 (stereo not shown) [Example 11]
0.01 to 100 nM	0.01 to 100 nM	CCc1nc2sc(N3CCC(N(C)C(N)=O)C3)nn2c1N(C)c1nc(-c2ccc(F)cc2)c(C#N)s1 (stereo not shown) [Example 12, 1-{1-[5-((5-cyano-4-(4-fluorophenyl)thiazol-2-yl)(methyl)amino)-6-ethylimidazo[2,1-b][1,3,4]thiadiazol-2-yl]pyrrolidin-3-yl}-1-methylurea]
0.01 to 100 nM	0.01 to 100 nM	CCc1nc2sc(N3CCCC(N(C)CC(=O)N4CC(O)C4)C3)nn2c1N(C)c1nc(-c2ccc(F)cc2)c(C#N)s1 (stereo not shown) [Example 14]
0.01 to 100 nM	0.01 to 100 nM	CCc1nc2sc(N3CCCC(N(C)C(N)=O)C3)nn2c1N(C)c1nc(-c2ccc(F)cc2)c(C#N)s1 (stereo not shown) [Example 15, 1-{1-[5-((5-cyano-4-(4-fluorophenyl)thiazol-2-yl)(methyl)amino)-6-ethylimidazo[2,1-b][1,3,4]thiadiazol-2-yl]piperidin-3-yl}-1-methylurea]
100 to 500 nM	0.01 to 100 nM	CCc1nc2sc(C3CCN(CC(=O)N4CC(O)C4)CC3)nn2c1N(C)c1nc(-c2ccc(F)cc2)c(C#N)s1 [Example 17, 2-{[6-ethyl-2-(1-(2-(3-hydroxyazetidin-1-yl)-2oxoethyl)piperidin-4-yl)imidazo[2,1-b][1,3,4]thiadiazol-5-yl](methyl)amino}-4-(4-fluorophenyl)thiazole-5-carbonitrile]
0.01 to 100 nM	100 to 500 nM	CCc1nc2sc(N3CC[C@@H](N(C)C(N)=O)C3)nn2c1N(C)c1nc(-c2ccc(F)cc2)c(C#N)s1 [Example 19, (R)-1-{1-[5-((5-cyano-4-(4-fluorophenyl)thiazol-2-yl)(methyl)amino)-6-ethylimidazo[2,1-b][1,3,4]thiadiazol-2-yl]pyrrolidin-3-yl}-1-methylurea]
0.01 to 100 nM	0.01 to 100 nM	CCc1nc2sc(N3CC[C@H](N(C)C(N)=O)C3)nn2c1N(C)c1nc(-c2ccc(F)cc2)c(C#N)s1 [Example 20, (S)-1-{1-[5-((5-cyano-4-(4-fluorophenyl)thiazol-2-yl)(methyl)amino)-6-ethylimidazo[2,1-b][1,3,4]thiadiazol-2-yl]pyrrolidin-3-yl}-1-methylurea]
0.01 to 100 nM	0.01 to 100 nM	CCc1nc2sc(N3CC[C@@H](N(C)CC(=O)N4CC(O)C4)C3)nn2c1N(C)c1nc(-c2ccc(F)cc2)c(C#N)s1 [Example 21, (R)-2-{[6-ethyl-2-(3-((2-(3-hydroxyazetidin-1-yl)-2-oxoethyl)(methyl)amino)pyrrolidin-1-yl)imidazo[2,1-b][1,3,4]thiadiazol-5-yl](methyl)amino}-4-(4-fluorophenyl)thiazole-5-carbonitrile]
	100 to 500 nM	CCc1nc2sc(N3C[C@@H](C)N(CC(=O)N4CC(O)C4)[C@@H](C)C3)nn2c1N(C)c1nc(-c2ccc(F)cc2)c(C#N)s1 [Example 72, cis-2-{[6-ethyl-2-(4-(2-(3-hydroxyazetidin-1-yl)-2-oxoethyl)-3,5-dimethylpiperazin-1-yl)imidazo[2,1-b][1,3,4]thiadiazol-5-yl](methyl)amino}-4-(4-fluorophenyl)thiazole-5-carbonitrile]
	0.01 to 100 nM	CCc1nc2sc(N3C[C@H](C)N(CC(=O)N4CC(O)C4)C[C@@H]3C)nn2c1N(C)c1nc(-c2ccc(F)cc2)c(C#N)s1 [Example 74, 2-{[6-ethyl-2-((2S,5S)-4-(2-(3-hydroxyazetidin-1-yl)-2-oxoethyl)-2,5-dimethylpiperazin-1-yl)imidazo[2,1-b][1,3,4]thiadiazol-5-yl](methyl)amino}-4-(4-fluorophenyl)thiazole-5-carbonitrile]
	100 to 500 nM	CCc1nc2sc(N3C[C@@H](C)N(CC(=O)N4CC(O)C4)C[C@H]3C)nn2c1N(C)c1nc(-c2ccc(F)cc2)c(C#N)s1 [Example 75, 2-{[6-ethyl-2-((2R,5R)-4-(2-(3-hydroxyazetidin-1-yl)-2-oxoethyl)-2,5-dimethylpiperazin-1-yl)imidazo[2,1-b][1,3,4]thiadiazol-5-yl](methyl)amino}-4-(4-fluorophenyl)thiazole-5-carbonitrile]
	0.01 to 100 nM	CCc1nc2sc(N3CCN(CC(=O)N4CC(O)C4)C(C)C3C)nn2c1N(C)c1nc(-c2ccc(F)cc2)c(C#N)s1 (stereo not shown) [Example 77, 2-{[6-ethyl-2-(4-(2-(3-hydroxyazetidin-1-yl)-2-oxoethyl)-2,3-dimethylpiperazin-1-yl)imidazo[2,1-b][1,3,4]thiadiazol-5-yl](methyl)amino}-4-(4-fluorophenyl)thiazole-5-carbonitrile]
	0.01 to 100 nM	CCc1nc2sc(N3CC[C@@H](N(C)C(C)C(=O)N4CC(O)C4)C3)nn2c1N(C)c1nc(-c2ccc(F)cc2)c(C#N)s1 (stereo partly drawn) [Example 78, 2-{[6-ethyl-2-((3R)-3-((1-(3-hydroxyazetidin-1-yl)-1-oxopropan-2-yl)(methyl)amino)pyrrolidin-1-yl)imidazo[2,1-b][1,3,4]thiadiazol-5-yl](methyl)amino}-4-(4-fluorophenyl)thiazol-5-carbonitrile]
	100 to 500 nM	CCc1nc2sc(N3CCC(C(=O)N4CC(O)C4)CC3)nn2c1N(C)c1nc(-c2ccc(F)cc2)c(C#N)s1 [Example 79, 2-{[6-ethyl-2-(4-(3-hydroxyazetidin-1-carbonyl)piperidin-1-yl)imidazo[2,1-b][1,3,4]thiadiazol-5-yl](methyl)amino}-4-(4-fluorophenyl)thiazole-5-carbonitrile]
	0.01 to 100 nM	CCc1nc2sc(N3CC[C@@H](NCC(=O)N4CC(O)C4)C3)nn2c1N(C)c1nc(-c2ccc(F)cc2)c(C#N)s1 [Example 80, (R)-2-{[6-ethyl-2-(3-((2-(3-hydroxyazetidin-1-yl)-2-oxoethyl)amino)pyrrolidin-1-yl)imidazo[2,1-b][1,3,4]thiadiazol-5-yl](methyl)amino}-4-(4-fluorophenyl)thiazol-5-carbonitrile]
